Patent US8778966B2, “Quinolinone derivatives as PARP and tank inhibitors” (Janssen Pharmaceutica, NV, priority 2007, dated 2014)

Biological target: T1, Human PARP-1 enzyme (Homo sapiens, UniProt P09874)
T1 construct: purchased Trevigen
Experiment: In vitro Scintillation Proximity Assay (SPA) for PARP-1 inhibitory activity
Format: biochemical
Conditions: read-out: in vitro SPA assay PARP-1 pIC50 (converted)
How it was run: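 SPA assay: nicked-DNA-activated PARP-1 (0.1–0.2 μg/ml) ADP-ribosylates biotinylated histones (2 μg/ml) using [3H]-NAD+, 20 min at RT in Tris pH 8/DTT/MgCl2, stopped with 2 mM NAD+. Blank-subtracted cpm expressed as % control; IC50 by linear interpolation, reported as pIC50 (10−5 to 3×10−9 M tested).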

T1 sequence (P09874 whole entry): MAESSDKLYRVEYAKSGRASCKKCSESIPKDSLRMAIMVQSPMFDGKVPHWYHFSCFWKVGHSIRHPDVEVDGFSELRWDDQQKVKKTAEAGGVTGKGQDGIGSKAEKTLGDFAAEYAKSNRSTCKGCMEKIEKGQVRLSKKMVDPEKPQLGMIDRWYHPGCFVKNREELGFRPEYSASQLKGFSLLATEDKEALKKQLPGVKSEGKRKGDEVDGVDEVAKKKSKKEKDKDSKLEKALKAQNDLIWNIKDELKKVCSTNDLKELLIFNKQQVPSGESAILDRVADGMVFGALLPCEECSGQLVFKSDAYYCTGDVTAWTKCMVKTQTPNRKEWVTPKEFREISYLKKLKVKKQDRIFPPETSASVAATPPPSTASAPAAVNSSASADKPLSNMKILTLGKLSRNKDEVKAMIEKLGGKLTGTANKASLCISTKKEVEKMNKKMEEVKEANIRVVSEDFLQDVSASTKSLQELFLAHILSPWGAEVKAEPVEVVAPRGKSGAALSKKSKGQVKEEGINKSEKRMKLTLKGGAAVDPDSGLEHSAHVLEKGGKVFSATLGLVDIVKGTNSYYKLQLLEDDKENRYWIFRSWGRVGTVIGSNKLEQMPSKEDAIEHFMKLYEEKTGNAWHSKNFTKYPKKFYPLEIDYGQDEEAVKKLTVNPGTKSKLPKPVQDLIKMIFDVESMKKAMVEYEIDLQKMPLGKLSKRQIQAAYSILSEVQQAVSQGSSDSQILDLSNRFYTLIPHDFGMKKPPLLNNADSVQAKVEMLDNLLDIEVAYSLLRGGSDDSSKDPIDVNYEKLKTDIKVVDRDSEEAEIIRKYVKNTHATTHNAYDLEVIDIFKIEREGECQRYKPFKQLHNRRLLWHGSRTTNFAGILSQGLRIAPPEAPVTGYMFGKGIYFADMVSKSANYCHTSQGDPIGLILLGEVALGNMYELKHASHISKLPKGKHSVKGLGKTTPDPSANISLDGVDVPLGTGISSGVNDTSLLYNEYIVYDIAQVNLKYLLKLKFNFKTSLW

In the case of CCc1cc2ccc(C(C)(C#N)Cc3cccc(OCCO)c3)cc2[nH]c1=O (stereo not shown) [Compound 262], the IC50 is reported as 79.4 nM.
CCc1cc2ccc(C(C)(C#N)CCOc3cccc(C(F)(F)F)c3)cc2[nH]c1=O (stereo not shown) [Compound 274] gave an IC50 of 501 nM.
CCc1cc2ccc(C(C)(C#N)Cc3cccc(CN)c3)cc2[nH]c1=O (stereo not shown) [Compound 290] gave an IC50 of 50.1 nM.
Work on CCc1cc2ccc(C(C)(C#N)Cc3cccc(/C=C/S(C)(=O)=O)c3)cc2[nH]c1=O (stereo not shown) [Compound 292] yielded an IC50 of 63.1 nM.
Molecule CCc1c(Cl)c2ccc(C(C)(C#N)Cc3cccc(C#N)c3)cc2[nH]c1=O (stereo not shown) [Compound 293] has an IC50 of 398 nM.
Work on CCc1cc2cc(OC)c(C(C)(C#N)Cc3ccccc3)cc2[nH]c1=O (stereo not shown) [Compound 294] yielded an IC50 of 251 nM.
With CCc1cc2ccc(C(C)(C#N)Cc3cccc(C#CCOC)c3)cc2[nH]c1=O (stereo not shown) [Compound 297] the IC50 was 79.4 nM.
Molecule CCc1cc2ccc(C(C)(C#N)Cc3cccc(C#CCN(C)C)c3)cc2[nH]c1=O (stereo not shown) [Compound 298] has an IC50 of 501 nM.
In the case of CCc1cc2ccc(C(C)(C#N)CNCc3cccc(C#N)c3)cc2[nH]c1=O (stereo not shown) [Compound 301], the IC50 is reported as 100 nM.
CCc1cc2ccc(C(C)(C#N)Cc3cnc(Cl)nc3Cl)cc2[nH]c1=O (stereo not shown) [Compound 306] showed an IC50 of 79.4 nM.
With COc1cc(OC)nc(CC(C)(C#N)c2ccc3cc(C)c(=O)[nH]c3c2)n1 (stereo not shown) [Compound 308] the IC50 was 631 nM.
Work on CCOc1cc(OCC)nc(CC(C)(C#N)c2ccc3cc(CC)c(=O)[nH]c3c2)n1 (stereo not shown) [Compound 309] yielded an IC50 of 158 nM.
Molecule CCc1cc2ccc(C(C)(C#N)Cc3cccc(Cl)n3)cc2[nH]c1=O (stereo not shown) [Compound 310] has an IC50 of 100 nM.
Molecule CCc1cc2ccc(C(C)(C#N)Cc3ncc(C)c(OC)c3C)cc2[nH]c1=O (stereo not shown) [Compound 311] has an IC50 of 126 nM.
Molecule CCc1cc2ccc(C(C)(C#N)Cc3ccc(C)nc3)cc2[nH]c1=O (stereo not shown) [Compound 327] has an IC50 of 100 nM.
In the case of CCc1cc2ccc(C(C)(C#N)Cc3cccc(C#N)n3)cc2[nH]c1=O (stereo not shown) [Compound 329], the IC50 is reported as 79.4 nM.
With CCCn1ccnc1CC(C)(C#N)c1ccc2cc(CC)c(=O)[nH]c2c1 (stereo not shown) [Compound 335] the IC50 was 251 nM.
CCc1cc2ccc(C(C)(C#N)Cc3ccc4ccccc4n3)cc2[nH]c1=O (stereo not shown) [Compound 336] gave an IC50 of 79.4 nM.
CCc1cc2ccc(C(C)(C#N)Cc3nccn3CC)cc2[nH]c1=O (stereo not shown) [Compound 337] showed an IC50 of 398 nM.
CCc1cc2ccc(C(C)(C#N)Cc3nc4ccccc4n3C)cc2[nH]c1=O (stereo not shown) [Compound 338] showed an IC50 of 200 nM.
CCc1cc2ccc(C(C)(C#N)Cc3cccc(C)n3)cc2[nH]c1=O (stereo not shown) [Compound 343] gave an IC50 of 79.4 nM.
CCc1cc2ccc(C(C)(C#N)Cc3cccc(Br)n3)cc2[nH]c1=O (stereo not shown) [Compound 344] gave an IC50 of 63.1 nM.
Work on CCc1cc2ccc(C(C)(C#N)Cc3cccc(CO)n3)cc2[nH]c1=O (stereo not shown) [Compound 345] yielded an IC50 of 158 nM.
In the case of CCc1cc2ccc(C(C)(C#N)Cc3ccc(OC)nc3)cc2[nH]c1=O (stereo not shown) [Compound 352], the IC50 is reported as 100 nM.
CCc1cc2ccc(C(C)(C#N)Cc3cccc(OC)n3)cc2[nH]c1=O (stereo not shown) [Compound 353] showed an IC50 of 79.4 nM.
CCc1cc2ccc(C(C)(C#N)Cc3cnc(OC)nc3Cl)cc2[nH]c1=O (stereo not shown) [Compound 356] gave an IC50 of 126 nM.
In the case of CCc1cc2ccc(C(C)(C#N)Cc3cnc(OC)nc3OC)cc2[nH]c1=O (stereo not shown) [Compound 357], the IC50 is reported as 79.4 nM.
Work on CCc1cc2ccc(C(C)(C#N)Cc3cc(OC)nc(OC)n3)cc2[nH]c1=O (stereo not shown) [Compound 358] yielded an IC50 of 50.1 nM.
With CCc1cc2ccc(C(C)(C#N)Cc3nc(Cl)cc(N(C)C)n3)cc2[nH]c1=O (stereo not shown) [Compound 359] the IC50 was 79.4 nM.
In the case of CCc1cc2ccc(C(C)(C#N)Cc3nccc(OC)n3)cc2[nH]c1=O (stereo not shown) [Compound 360], the IC50 is reported as 100 nM.
For CCc1cc2ccc(C(C)(C#N)Cc3cc(OCCOC)nc(C)n3)cc2[nH]c1=O (stereo not shown) [Compound 363], the IC50 was 158 nM.
Molecule CCc1cc2ccc(C(C)(C#N)Cc3cc(N(C)C)nc(Cl)n3)cc2[nH]c1=O (stereo not shown) [Compound 364] has an IC50 of 158 nM.
In the case of CCc1cc2ccc(C(C)(C#N)Cc3cc(OC)nc(C)n3)cc2[nH]c1=O (stereo not shown) [Compound 366], the IC50 is reported as 126 nM.
Molecule CCc1cc2ccc(C(C)(C#N)Cc3cc(OCCOC)nc(Cl)n3)cc2[nH]c1=O (stereo not shown) [Compound 367] has an IC50 of 79.4 nM.
Work on CCc1cc2ccc(C(C)(C#N)Cc3nc(C)cc(C)n3)cc2[nH]c1=O (stereo not shown) [Compound 368] yielded an IC50 of 316 nM.
CCc1cc2ccc(C(C)(C#N)Cc3nccc(OCCOC)n3)cc2[nH]c1=O (stereo not shown) [Compound 369] gave an IC50 of 126 nM.
CCc1cc2ccc(C(C)(C#N)Cc3nc(Cl)cc(OCCOC)n3)cc2[nH]c1=O (stereo not shown) [Compound 370] showed an IC50 of 200 nM.
In the case of CCc1cc2ccc(C(C)(C#N)Cc3cc(Cl)nc(Cl)c3)cc2[nH]c1=O (stereo not shown) [Compound 372], the IC50 is reported as 100 nM.
Molecule CCc1cc2ccc(C(C)(C#N)Cc3cc(OC)ccn3)cc2[nH]c1=O (stereo not shown) [Compound 373] has an IC50 of 100 nM.
CCc1cc2ccc(C(C)(C#N)CC3CCc4ccccc4O3)cc2[nH]c1=O (stereo not shown) [Compound 399] gave an IC50 of 316 nM.
